Test [1] is described as follows: Wisconsin Card Sorting Task in the OCD randomized double-blind trial. The class given is in vivo, human. Particulars: iTBS+DCS (100 mg), baseline vs after 4 weeks of treatment, compared with iTBS+Placebo and Sham-iTBS. How it is done: The efficacy of 100 mg DCS as an adjunctive strategy to iTBS to reduce OCD-related cognitive impairment and/or improve cognition in OCD was tested in a randomized double-blind 4-week study described in the Example above. Participants completed the Wisconsin Card Sorting Task at baseline and after 4 weeks of treatment. The preplanned focus was on the percent perseverative errors as an index of executive function, cognitive flexibility and cognitive control.

Test [2] is described as follows: Motor cortex TMS plasticity: stimulus response curve slope after single and repeated spaced iTBS, randomized double-blind placebo-controlled crossover study. The test is classed as in vivo, human. Particulars: healthy participants (n=20), +30 and +60 minutes, vs placebo condition. As to the method:
Methods: A randomized double-blind placebo-controlled crossover study in healthy participants (n=20) was conducted (NCT05081986). Participants completed the study in two experimental sessions separated. In these experiments, the motor cortex was stimulated twice using TMS intermittent theta burst stimulation (iTBS) with a one-hour interval between interventions. In random order, this was done with placebo or D-cycloserine (100 mg) as adjuvant, and then the converse at least one week later. The participants' surface anatomical markers were registered to a template magnetic resonance brain image using Neuronavigation software (ANT Neuro, Germany) to permit neuronavigation and reliable targeting throughout the experiment. Transcranial magnetic stimulation involved a MagPro X100 system with Cool-B70 figure-eight coil (MagVenture, Denmark). The iTBS protocol consisted of 20 trains of bursts of 3-pulses at 50 Hz, repeated at 5 Hz with an 8 second inter-train interval at 80% RMT. Motor evoked potentials (MEPs) from the first-dorsal interosseous muscle were sampled to describe stimulus response curves using CED Signal (Cambridge, England) before and after iTBS. […] EMG data were analyzed offline using MATLAB via custom written scripts as previously described^123. […]

The structures appear in SMILES notation. Entries after “also recorded” stand apart in the source; their conditions may differ.

`N[C@@H]1CON=C1O` [DCS, D-cycloserine]: in test [1], the “percentage of perseverative errors (Wisconsin Card Sorting Task)” value was “significant reductions in the percentage of perseverative errors; also recorded: decrease in the percent perseverative errors”. Also, the “change in stimulus response curve (SRC) slope after first (single) iTBS” value in test [2] (DCS 100 mg as adjuvant to iTBS of motor cortex) was “stable after a single iTBS; also recorded: the initial SRC shift at +30 minutes remains stable at +60 minutes”. Also, the “change in stimulus response curve (SRC) slope after second (repeated spaced) iTBS” value in test [2] (DCS 100 mg, second iTBS 60 minutes after the first) is “compound with spaced repeated iTBS; also recorded: a further shift in SRC slope in the DCS condition at +30 minutes that was sustained at +60 minutes”.

The record behind these values is patent US20240415816A1, “ADJUNCTIVE D-CYCLOSERINE AUGMENTATION OF TRANSCRANIAL MAGNETIC STIMULATION (TMS) THERAPY FOR OBSESSIVE COMPULSIVE DISORDER” (MCGRX CORP., priority 2021, published 2024).
